Data on 17 molecules can be found in PMC10127554 (Chemical biology & drug design, 2022).

Data set [1] concerns non-cancerous human lung fibroblast cells (HLF). The data set is described as follows: Cytotoxicity, CellTiter Glo assay, non-cancerous human lung fibroblast cells. It counts as cell-based. The note with it: for IC50: Homo sapiens, Fibroblast, 72 h, read-out: IC50 Non-cancerous HLF.
The test system of the next data set is A549 cells. The data set is described as follows: Antiproliferative activity, CellTiter Glo assay, A549. The note with it: Homo sapiens, A549, 72 h, read-out: IC50 A549. (In general: In ATP-based viability assays light output follows the ATP content of the culture.)
For data set [2], the system named is NCI-H522 cells. The data set can be described thus: Antiproliferative activity, CellTiter Glo assay, NCI-H522. The note with it: Homo sapiens, NCI-H522, 72 h, read-out: IC50 NCIH522.
Another data set deals with ACVRL1 (Homo sapiens, UniProt P37023). The data set is described as follows: Kinase activity profiling. The data set is classed as biochemical. The note with it: concentration not given.
ACVRL1, sequence (P37023 22-503): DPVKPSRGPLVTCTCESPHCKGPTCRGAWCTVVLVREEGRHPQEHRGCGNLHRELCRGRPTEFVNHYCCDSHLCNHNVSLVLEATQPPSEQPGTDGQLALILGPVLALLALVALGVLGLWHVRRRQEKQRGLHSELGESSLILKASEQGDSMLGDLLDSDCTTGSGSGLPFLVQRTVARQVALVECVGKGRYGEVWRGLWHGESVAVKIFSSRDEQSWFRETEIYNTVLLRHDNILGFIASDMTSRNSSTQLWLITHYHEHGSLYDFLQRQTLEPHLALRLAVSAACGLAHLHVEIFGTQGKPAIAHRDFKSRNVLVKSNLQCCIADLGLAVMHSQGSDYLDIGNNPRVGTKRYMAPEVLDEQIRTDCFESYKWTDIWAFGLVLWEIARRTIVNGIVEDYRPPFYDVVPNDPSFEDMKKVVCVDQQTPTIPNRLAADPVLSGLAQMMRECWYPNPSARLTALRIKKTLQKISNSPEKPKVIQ
The target of a further data set is T1, ANKK1 (Homo sapiens, UniProt Q8NFD2).
T1 sequence (Q8NFD2 1-765): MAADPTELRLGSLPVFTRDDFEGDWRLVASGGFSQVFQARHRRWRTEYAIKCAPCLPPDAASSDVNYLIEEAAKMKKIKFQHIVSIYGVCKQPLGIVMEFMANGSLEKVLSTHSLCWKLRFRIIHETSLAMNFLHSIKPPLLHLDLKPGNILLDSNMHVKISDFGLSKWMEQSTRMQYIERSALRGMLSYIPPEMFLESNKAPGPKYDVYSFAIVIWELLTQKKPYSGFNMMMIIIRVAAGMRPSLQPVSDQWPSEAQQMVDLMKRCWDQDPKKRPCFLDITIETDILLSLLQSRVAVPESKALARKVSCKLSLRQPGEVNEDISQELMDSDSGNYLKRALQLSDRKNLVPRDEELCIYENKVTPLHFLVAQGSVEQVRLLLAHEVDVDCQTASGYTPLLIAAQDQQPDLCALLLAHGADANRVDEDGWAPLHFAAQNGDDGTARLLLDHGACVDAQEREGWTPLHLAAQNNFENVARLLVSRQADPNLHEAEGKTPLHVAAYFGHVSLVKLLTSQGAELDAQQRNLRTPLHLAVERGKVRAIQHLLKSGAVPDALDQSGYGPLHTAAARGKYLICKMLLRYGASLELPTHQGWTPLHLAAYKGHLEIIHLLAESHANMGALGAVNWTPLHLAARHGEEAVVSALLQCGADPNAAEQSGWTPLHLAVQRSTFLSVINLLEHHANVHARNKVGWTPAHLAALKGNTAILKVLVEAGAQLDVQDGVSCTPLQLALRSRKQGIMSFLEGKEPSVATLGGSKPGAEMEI
The data set is described as follows: Kinase activity profiling. It counts as biochemical. As to conditions: concentration not given.

Data set [3] relates to panel of 485 kinases (including 110 oncogenic kinases). The data set is described as follows: Kinase activity profiling. The data set is classed as biochemical.
The next data set deals with T2, NUAK2 (Homo sapiens, UniProt Q9H093).
T2 sequence (Q9H093 1-628): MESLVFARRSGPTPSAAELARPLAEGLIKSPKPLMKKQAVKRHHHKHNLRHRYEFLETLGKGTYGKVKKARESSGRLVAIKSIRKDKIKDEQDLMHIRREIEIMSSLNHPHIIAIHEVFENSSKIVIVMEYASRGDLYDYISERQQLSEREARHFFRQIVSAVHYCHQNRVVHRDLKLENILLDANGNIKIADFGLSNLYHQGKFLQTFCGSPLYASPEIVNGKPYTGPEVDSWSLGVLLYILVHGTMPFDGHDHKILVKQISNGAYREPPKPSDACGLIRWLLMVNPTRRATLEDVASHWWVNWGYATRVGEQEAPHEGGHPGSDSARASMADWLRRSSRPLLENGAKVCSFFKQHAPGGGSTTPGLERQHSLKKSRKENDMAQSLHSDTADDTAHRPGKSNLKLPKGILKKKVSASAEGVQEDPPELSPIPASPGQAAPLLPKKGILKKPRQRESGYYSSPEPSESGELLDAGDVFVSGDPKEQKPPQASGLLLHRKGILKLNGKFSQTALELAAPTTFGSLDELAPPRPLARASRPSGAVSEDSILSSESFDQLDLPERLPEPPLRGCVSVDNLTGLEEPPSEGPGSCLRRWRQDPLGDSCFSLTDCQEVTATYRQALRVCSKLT
The data set can be described thus: Kinase activity profiling. The data set is classed as biochemical. As to conditions: concentration not given.

Data set [4] has as its system NCI-H522 cells. The data set can be described thus: Cell cycle analysis by flow cytometry. The data set is classed as cell-based, human. As to conditions: 48hrs at 5 μM. On the technique in general: A flow cytometer gives signals particle by particle.

One may read the IC50 as the concentration at which inhibition is half-maximal. Take `CC1=NN(c2ccccc2)C(=O)C1(C)O` (stereo not drawn) [P1, 4-hydroxy-4,5-dimethyl-2-phenyl-2,4-dihydro-3H-pyrazol-3-one]: the IC50 (in data set [1]; with A549 cells; in the data set on NCI-H522 cells [2]) was above 100 µM throughout.

For `CCCC1=NN(c2ccccc2)C(=O)C1` [P2, 2-phenyl-5-propyl-2,4-dihydro-3H-pyrazol-3-one], the IC50 in the data set on A549 cells and in the data set with NCI-H522 cells [2] was above 100 µM in each case.

With `O=C1CC(c2ccccc2)=NN1c1ccccc1` [P3, 2,5-diphenyl-2,4-dihydro-3H-pyrazol-3-one], the half-inhibitory concentration (IC50) came out at 25.1 ± 1.39 µM in data set [1], 10.3 ± 1.55 µM in the data set on A549 cells and 17 ± 2.61 µM in the data set on NCI-H522 cells [2].

For the molecule `O=C1CC(c2ccccc2)=NN1c1ccc(Br)cc1` [P4, 2-(4-bromophenyl)-5-phenyl-2,4-dihydro-3H-pyrazol-3-one], the results for the half-inhibitory concentration (IC50) (in data set [1]; in the data set with A549 cells; in the data set with NCI-H522 cells [2]) were 0.72 ± 1.07 µM, 2.61 ± 1.12 µM and 4.93 ± 1.13 µM, respectively.

For the molecule `O=C1CC(c2ccccc2)=NN1c1ccc(Cl)cc1` [P5, 2-(4-chlorophenyl)-5-phenyl-2,4-dihydro-3H-pyrazol-3-one], the IC50 in data set [1] was determined as 0.99 ± 1.25 µM; in the data set on A549 cells, 1.98 ± 1.1 µM; in the data set on NCI-H522 cells [2], 4.5 ± 1.16 µM.

As to `O=C1CC(c2ccc([N+](=O)[O-])cc2)=NN1c1ccccc1` [P6, 5-(4-nitrophenyl)-2-phenyl-2,4-dihydro-3H-pyrazol-3-one], the IC50 in data set [1] turned out to be 26.8 ± 1.4 µM; in the data set with A549 cells, 39.6 ± 1.05 µM; with NCI-H522 cells [2], 40.5 ± 2.3 µM.

Turning to `O=C1CC(c2ccc(Br)cc2)=NN1c1ccccc1` [P7, 5-(4-bromophenyl)-2-phenyl-2,4-dihydro-3H-pyrazol-3-one], the 50% inhibitory concentration (IC50) stood at 61.3 ± 1.08 µM in data set [1], 6.35 ± 0.85 µM with A549 cells and 4.7 ± 1.38 µM in the data set with NCI-H522 cells [2]. In data set [1] (non-cancerous cells versus A549 and NCIH522 cancer cell lines), the “times less cytotoxic to non-cancerous cells” value stood at 10 times. Also, the “inhibitory activity against ACVRL1” value against ACVRL1 came out at 47%. The “inhibitory activity against ANKK1” value against ANKK1 is 50%. For the same molecule, the “inhibitory activity over panel of 485 kinases” value in data set [3] is on record as “no potential inhibitory activity against any tested kinase”. In addition, the “inhibitory activity against NUAK2” value on NUAK2 is recorded as 41%. Besides, the “effect on cell cycle progression” value with NCI-H522 cells [4] was “more cell population in G0/G1 phase”.

On to `O=C1CC(c2ccc(F)cc2)=NN1c1ccccc1` [P8, 5-(4-fluorophenyl)-2-phenyl-2,4-dihydro-3H-pyrazol-3-one], for which the IC50 in data set [1] is 17.7 ± 1.1 µM; in the data set with A549 cells, 9.51 ± 3.12 µM; in the data set with NCI-H522 cells [2], 17.9 ± 3.36 µM.

`COc1ccc(C2=NN(c3ccccc3)C(=O)C2)cc1` [P9, 5-(4-methoxyphenyl)-2-phenyl-2,4-dihydro-3H-pyrazol-3-one]: the IC50 in the data set on A549 cells worked out at 42.2 ± 2.76 µM; in the data set with NCI-H522 cells [2], 51.2 ± 3.06 µM.

For the molecule `COc1cccc(C2=NN(c3ccccc3)C(=O)C2)c1` [P10, 5-(3-methoxyphenyl)-2-phenyl-2,4-dihydro-3H-pyrazol-3-one], the IC50 in the data set on A549 cells and in the data set on NCI-H522 cells [2] was above 100 µM throughout.

As for `O=C1CC(c2ccc(C(F)(F)F)cc2)=NN1c1ccccc1` [P11, 2-phenyl-5-(4-(trifluoromethyl)phenyl)-2,4-dihydro-3H-pyrazol-3-one], the half-inhibitory concentration (IC50) in data set [1] amounted to 26.1 ± 1.12 µM; in the data set with A549 cells it was 5.98 ± 0.84 µM; in the data set with NCI-H522 cells [2], 4.88 ± 1.73 µM. The “effect on cell cycle progression” value with NCI-H522 cells [4] is on record as “more cell population in G0/G1 phase”.

Consider `O=C1CC(c2cc(F)c(F)c(F)c2F)=NN1c1ccccc1` [P12, 2-phenyl-5-(2,3,4,5-tetrafluorophenyl)-2,4-dihydro-3H-pyrazol-3-one], for which the IC50 in data set [1] amounted to 8.52 ± 1.09 µM; with A549 cells it was 8.6 ± 0.59 µM; in the data set with NCI-H522 cells [2], 9.9 ± 2.44 µM.

As to `O=C1CC(c2ccc(F)cc2)=NN1c1ccc(Br)cc1` [P13, 2-(4-bromophenyl)-5-(4-fluorophenyl)-2,4-dihydro-3H-pyrazol-3-one], the results for the IC50 (in data set [1]; with A549 cells; in the data set with NCI-H522 cells [2]) were 3.57 ± 1.15 µM, 2.67 ± 0.51 µM and 3.7 ± 0.34 µM, respectively. Further, the “effect on cell cycle progression” value with NCI-H522 cells [4] is “more cell population in G2/M phase”.

Regarding `O=C1CC(c2ccc(Br)cc2)=NN1c1ccc(Br)cc1` [P14, 2,5-bis(4-bromophenyl)-2,4-dihydro-3H-pyrazol-3-one], the 50% inhibitory concentration (IC50) amounted to 2.55 ± 1.1 µM in data set [1], 2.73 ± 0.28 µM in the data set on A549 cells and 2.41 ± 0.57 µM in the data set with NCI-H522 cells [2]. Further, the “effect on cell cycle progression” value in the data set with NCI-H522 cells [4] is “more cell population in G2/M phase”.

With `O=C1CC(c2ccc(Br)cc2)=NN1c1ccc(C(F)(F)F)cc1` [P16, 5-(4-bromophenyl)-2-(4-(trifluoromethyl)phenyl)-2,4-dihydro-3H-pyrazol-3-one], the concentration for half-maximal inhibition (IC50) in data set [1] was determined as 1.45 ± 1.14 µM; in the data set on A549 cells, 3.37 ± 0.1 µM; in the data set on NCI-H522 cells [2] it was 2.95 ± 0.18 µM.

Take `O=C1CC(c2ccc(Br)cc2)=NN1c1cc(Cl)cc(Cl)c1` [P17, 5-(4-bromophenyl)-2-(3,5-dichlorophenyl)-2,4-dihydro-3H-pyrazol-3-one]: the concentration for half-maximal inhibition (IC50) amounted to 6.94 ± 1.12 µM in data set [1], 5.56 ± 0.07 µM in the data set with A549 cells and 5.07 ± 1.18 µM with NCI-H522 cells [2].

Regarding `CN(C)C/C=C/C(=O)Nc1cc2c(Nc3ccc(F)c(Cl)c3)ncnc2cc1O[C@H]1CCOC1` [PC-1, Afatinib, reference compound], the IC50 turned out to be 12.2 ± 3.12 µM in data set [1], 8.46 ± 2.03 µM in the data set on A549 cells and 5.34 ± 0.94 µM in the data set with NCI-H522 cells [2].
